Experimental data as given in US20180327367A1, “MACROCYCLIC BROAD SPECTRUM ANTIBIOTICS” (priority 2015, published 2018).
Converted amounts (≈) assume the structure as drawn. Like-named read-outs stand apart in the source and are kept apart here.

Tests used:
Assay type in all cases: cell-based
[1] = tested on: Methicillin Resistant Staphylococcus aureus strain USA 300, NRS384; assay: Minimum inhibitory concentration, broth micro-dilution (CLSI), S. aureus; details: Staphylococcus aureus, MRSA / NRS 384 / USA300, 22 h, 35° C., 22 hours
How it was run: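 Colonies grown 20 hours at 35° C were suspended in cation-adjusted Mueller Hinton Broth with 0.002% Tween-80. Cells were then added to 2-fold compound dilutions starting at 4 or 0.5 μg/mL, at OD600 0.0005.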

[2] = tested on: Escherichia coli MC4100 harboring the IMP4213 (E. coli IMP); assay: microbe, parasite or virus in culture; details: Escherichia coli, 22 h, read-out: MIC (μg/mL) E. coli IMP, E. coli MC4100 IMP4213, increased outer-membrane permeability; 35° C., 22 hours
How it was run: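 Broth micro-dilution per CLSI in cation-adjusted Mueller Hinton Broth with 0.002% Tween-80; E. coli MC4100 carries IMP4213, raising outer-membrane permeability. Compounds tested as 2-fold serial dilutions (10 concentrations) from 4 μg/mL (protocol 2) or 0.5 μg/mL (protocol 3); inoculum OD600 0.0005, 35° C for 22 hours.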

[3] = tested on: Escherichia coli ATCC 25922; assay: Minimum inhibitory concentration, broth micro-dilution (CLSI), E. coli; details: Escherichia coli, ATCC25922, 22 h, 35° C., 22 hours
[4] = MRSA USA 300 NRS384, read-out: MIC (μg/mL) S. aureus
[5] = E. coli ATCC 25922, read-out: MIC (μg/mL) E. coli
[6] = read-out: MIC (μg/mL) S. aureus, MRSA USA 300 NRS384
[7] = read-out: MIC (μg/mL) E. coli, E. coli ATCC 25922

Row | Structure (SMILES) | MIC [1, 4] [µg/mL] | MIC [2] [µg/mL] | MIC [3, 5] [µg/mL] | MIC [1, 6] [µg/mL] | MIC [3, 7] [µg/mL]
1 | Cc1nc(-c2ccc(-c3ccccc3)cc2)ncc1C(=O)N[C@@H](CCN)C(=O)N(C)[C@@H]1C(=O)N[C@@H](C)C(=O)N[C@H](C(=O)NCC#N)Cc2ccc(OCCN)c(c2)-c2cc1ccc2OCCN [Compound 158] | 0.031 (≈ 0.0341 µM) | 0.002 (≈ 0.0022 µM) | 0.11 (≈ 0.121 µM) |  | 
2 | CCCCCCCCCC(=O)N(C)[C@@H](CO)C(=O)N[C@@H](CCN)C(=O)N(C)[C@@H]1C(=O)N[C@@H](C)C(=O)N[C@H](C(=O)NCC#N)Cc2ccc(OCCN)c(c2)-c2cc1ccc2OCCN [Compound 388] |  | 0.25 (≈ 0.28 µM) |  | 0.25 (≈ 0.28 µM) | 48 (≈ 53.7 µM)
3 | Cc1cc(C(C)C)ccc1C(=O)N[C@@H](CCN)C(=O)N(C)[C@@H]1C(=O)N[C@@H](C)C(=O)N[C@H](C(=O)NCC#N)Cc2ccc(OCCN)c(c2)-c2cc1ccc2OCCN [Compound 433] |  | 0.094 (≈ 0.118 µM) |  | 0.5 (≈ 0.627 µM) | 4 (≈ 5.01 µM)
4 | CCCCCCCCCC(=O)NCC(=O)NCC(=O)N[C@@H](CCN)C(=O)N(C)[C@@H]1C(=O)N[C@@H](C)C(=O)N[C@H](C(=O)NCC#N)Cc2ccc(OCCN)c(c2)-c2cc1ccc2OCCN [Compound 362] |  | 0.5 (≈ 0.552 µM) |  | 0.25 (≈ 0.276 µM) | 32 (≈ 35.3 µM)
5 | CCCCCCCCCNC(=O)CC(=O)N[C@@H](CCN)C(=O)N(C)[C@@H]1C(=O)N[C@@H](C)C(=O)N[C@H](C(=O)NCC#N)Cc2ccc(OCCN)c(c2)-c2cc1ccc2OCCN [Compound 361] | 0.13 (≈ 0.153 µM) | 0.13 (≈ 0.153 µM) | 16 (≈ 18.8 µM) |  | 
6 | CCCCCCCCCCCCCC(=O)N(C)[C@@H]1C(=O)N[C@@H](C)C(=O)N[C@H](C(=O)N[C@@H](C)C#N)Cc2ccc(OCCN)c(c2)-c2cc1ccc2OCCN [Compound 474] | 2 (≈ 2.62 µM) | 0.19 (≈ 0.249 µM) | 4 (≈ 5.25 µM) |  | 
7 | CCCCCCCCCCCC(=O)N(C)[C@@H](CCN)C(=O)N(C)[C@@H]1C(=O)N[C@@H](C)C(=O)N[C@H](C(=O)NCC#N)Cc2ccc(OCCN)c(c2)-c2cc1ccc2OCCN [Compound 398] | 0.13 (≈ 0.156 µM) | 0.13 (≈ 0.156 µM) | 16 (≈ 19.2 µM) |  | 
8 | CCCCCCCCCC(=O)N[C@H](C)C(=O)N[C@@H](CCN)C(=O)N(C)[C@@H]1C(=O)N[C@@H](C)C(=O)N[C@H](C(=O)NCC#N)Cc2ccc(OCCN)c(c2)-c2cc1ccc2OCCN [Compound 374] |  | 0.13 (≈ 0.151 µM) |  | 0.19 (≈ 0.22 µM) | 16 (≈ 18.5 µM)
9 | CCCCCCc1ccc(C(=O)N[C@@H](Cc2ccncc2)C(=O)N(C)[C@@H]2C(=O)N[C@@H](C)C(=O)N[C@H](C(=O)NCC#N)Cc3ccc(OCCN)c(c3)-c3cc2ccc3OCCN)c(C)c1 [Compound 479] | 0.25 (≈ 0.282 µM) | 0.5 (≈ 0.563 µM) | 32 (≈ 36 µM) |  | 
10 | CCCCc1ccc(C(=O)N[C@@H](CCN)CC(=O)N(C)[C@@H]2C(=O)N[C@@H](C)C(=O)N[C@H](C(=O)NCC#N)Cc3ccc(OCCN)c(c3)-c3cc2ccc3OCCN)c(C)c1 [Compound 511] | 1.5 (≈ 1.82 µM) | 1 (≈ 1.21 µM) | > 64 |  | 
11 | CCCCCCCCCCNCCS(=O)(=O)N[C@@H](CCCN)C(=O)N(C)[C@@H]1C(=O)N[C@@H](C)C(=O)N[C@H](C(=O)NCC#N)Cc2ccc(OCCN)c(c2)-c2cc1ccc2OCCN [Compound 349] | 0.016 (≈ 0.0178 µM) | 0.13 (≈ 0.145 µM) | 8 (≈ 8.9 µM) |  | 
12 | CCCCCCCCCC(=O)NCCC(=O)NCC(=O)N[C@@H](CCN)C(=O)N(C)[C@@H]1C(=O)N[C@@H](C)C(=O)N[C@H](C(=O)NCC#N)Cc2ccc(OCCN)c(c2)-c2cc1ccc2OCCN [Compound 368] |  | 1 (≈ 1.09 µM) |  | 0.25 (≈ 0.272 µM) | 64 (≈ 69.6 µM)
13 | CCCCCCCCc1ccc(C(=O)N[C@@H](CCN)C(=O)N(C)[C@@H]2C(=O)N[C@@H](C)C(=O)N[C@H](C(=O)NCC#N)Cc3ccc(OCCN)c(c3)-c3cc2ccc3OCCN)c(OCC(=O)NCC#N)c1 [Compound 410] | 0.13 (≈ 0.135 µM) | 0.13 (≈ 0.135 µM) | 6 (≈ 6.21 µM) |  | 
14 | C[C@@H]1NC(=O)[C@@H](N(C)C(=O)[C@H](CCN)NC(=O)CCCC2CCCCC2)c2ccc(OCCN)c(c2)-c2cc(ccc2OCCN)C[C@@H](C(=O)NCC#N)NC1=O [Compound 126] | 0.5 (≈ 0.633 µM) | 0.25 (≈ 0.316 µM) | 32 (≈ 40.5 µM) |  | 
15 | CCCCCCCCc1ccc2c(=O)n([C@@H](CCN)C(=O)N(C)[C@@H]3C(=O)N[C@@H](C)C(=O)N[C@H](C(=O)NCC#N)Cc4ccc(OCCN)c(c4)-c4cc3ccc4OCCN)c(C)nc2c1 [Compound 487] | 0.5 (≈ 0.56 µM) | 0.25 (≈ 0.28 µM) | 8 (≈ 8.96 µM) |  | 
16 | CCCCCCCCCCCCCC(=O)N[C@@H](CCN)C(=O)N(C)[C@@H]1C(=O)N[C@@H](C)C(=O)N[C@H](C(=O)NCC#N)Cc2ccc(OCCO)c(c2)-c2cc1ccc2OCCO [Compound 458] | 0.25 (≈ 0.294 µM) | 0.0078 (≈ 0.00918 µM) | 16 (≈ 18.8 µM) |  | 
